Test results: patent US9394297B2, “Amides as pim inhibitors” (AMGEN INC., priority 2012, dated 2016)
Where two headings read alike, the source gives them in different places.

Assays:
Pim-2 [1] = target: T1, Pim-2 (Homo sapiens (Human), UniProt Q9P1W9); assay: Pim-Mn enzyme assay (HTRF, 384-well), Pim-2; type: biochemical; settings: read-out: Pim-2-Mn IC50 IP
[2] = system: KMS-12-BM myeloma cell line; assay: Pim KMS-12 cell assay (phospho-BAD S112 / total BAD, MSD)
Pim-1 [3] = target: T2, Pim-1 (Homo sapiens (Human), UniProt P11309); assay: Pim enzyme assay (HTRF, 96-well), Pim-1; type: biochemical; settings: full length recombinant Pim-1, biotinylated-BAD (S112) peptide, 10-point curve, 2 h RT, read-out: Pim-1 IC50 IP
Procedure, shortened: (§1)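 HTRF detection of biotinylated BAD (S112) phosphorylation by full-length recombinant His-tagged Pim-1 or Pim-2 in 60 mM Hepes pH 7.0, 0.05% BSA, 2 mM DTT at 22 °C: 2 h for Pim-1, 45 min for Pim-2. Stopped with EDTA; IC50 from 4-parameter logistic fit of percent of control.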

Pim-1 [4] = target: T2, Pim-1; assay: Pim-Mn enzyme assay (HTRF, 384-well), Pim-1; type: biochemical; settings: read-out: Pim-1-Mn IC50 IP
Pim-2 [5] = target: T1, Pim-2; assay: Pim enzyme assay (HTRF, 96-well), Pim-2; type: biochemical; settings: full length recombinant Pim-2, biotinylated-BAD (S112) peptide, 10-point curve, 45 min RT, read-out: Pim-2 IC50 IP
Procedure, shortened: as §1

[6] = Pim-2 enzyme 0.5 pM, ATP 1.5 μM, BAD (S112) 0.5 μM, HTRF, 22-point curve
[7] = Homo sapiens, KMS-12-BM, read-out: KMS-12-BM IC50 IP, KMS-12-BM cells, phospho-BAD (S112) vs total BAD, 1 hour 50 min with compound
[8] = Pim-1 enzyme 5 pM, ATP 1.5 μM, BAD (S112) 0.5 μM, HTRF, 22-point curve
[9] = read-out: KMS-12-BM IC50 IP, KMS-12-BM cells, phospho-BAD (S112) vs total BAD, 1 hour 50 min with compound
[10] = Homo sapiens, KMS-12-BM, read-out: KMS-12-BM IC50 IP

T1 sequence (Q9P1W9 whole entry): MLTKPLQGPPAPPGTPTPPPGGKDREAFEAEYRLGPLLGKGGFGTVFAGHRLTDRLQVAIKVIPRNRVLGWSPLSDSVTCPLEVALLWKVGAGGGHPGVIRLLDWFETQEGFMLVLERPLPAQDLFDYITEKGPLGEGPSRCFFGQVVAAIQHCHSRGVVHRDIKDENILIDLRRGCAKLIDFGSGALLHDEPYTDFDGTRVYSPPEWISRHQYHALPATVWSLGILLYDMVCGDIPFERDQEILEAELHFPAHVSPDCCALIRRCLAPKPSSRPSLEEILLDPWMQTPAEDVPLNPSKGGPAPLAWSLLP
T2 sequence (P11309 whole entry): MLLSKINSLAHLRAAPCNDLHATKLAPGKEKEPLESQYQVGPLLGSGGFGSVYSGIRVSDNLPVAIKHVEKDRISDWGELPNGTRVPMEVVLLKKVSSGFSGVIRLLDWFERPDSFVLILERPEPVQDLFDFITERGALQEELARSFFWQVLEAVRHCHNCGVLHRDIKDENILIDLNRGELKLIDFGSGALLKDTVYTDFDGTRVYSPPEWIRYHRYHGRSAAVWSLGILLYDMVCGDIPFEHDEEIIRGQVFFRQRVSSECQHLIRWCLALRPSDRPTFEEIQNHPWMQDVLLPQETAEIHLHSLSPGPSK

| Structure (SMILES) | IC50 (Pim-2 [1]; [6]) [nM] | IC50 [2, 7] [nM] | IC50 (Pim-1 [3]) [nM] | IC50 (Pim-1 [4]; [8]) [nM] | IC50 (Pim-2 [5]) [nM] | IC50 [2, 9] [nM] | IC50 [2, 10] [nM] | IC50 (Pim-2 [1]) [nM] | IC50 (Pim-1 [4]) [nM] |
| --- | --- | --- | --- | --- | --- | --- | --- | --- | --- |
| Cc1nc2cccc(-c3cc4c([nH]3)CCNC4=O)c2nc1NC1(C)CCC1 [Example 144, 2-(2-methyl-3-((1-methylcyclobutyl)amino)quinoxalin-5-yl)-6,7-dihydro-1H-pyrrolo[3,2-c]pyridin-4(5H)-one] | 0.6 | 67.8 | 2 | 0.8 | 1.6 |  |  |  |  |
| Cc1nc2cccc(-c3cc4c([nH]3)CCNC4=O)c2nc1NC1CCC1 [Example 131, 2-(3-(cyclobutylamino)-2-methylquinoxalin-5-yl)-6,7-dihydro-1H-pyrrolo[3,2-c]pyridin-4(5H)-one] | 0.8 | 142 | 5 | 1.6 | 2.6 |  |  |  |  |
| Cc1nc2cccc(-c3cc4c([nH]3)CCNC4=O)c2nc1NC(C)(C)CO [Example 201, 2-(3-((1-hydroxy-2-methylpropan-2-yl)amino)-2-methylquinoxalin-5-yl)-6,7-dihydro-1H-pyrrolo[3,2-c]pyridin-4(5H)-one] | 1.7 | 136 | 3 | 2.5 | 2.8 |  |  |  |  |
| Cc1nc2cccc(-c3cc4c([nH]3)CCNC4=O)c2nc1NCC(C)(C)C [Example 147, 2-(2-methyl-3-(neopentylamino)quinoxalin-5-yl)-6,7-dihydro-1H-pyrrolo[3,2-c]pyridin-4(5H)-one] | 0.6 | 176 | 2.9 | 1.9 | 1.4 |  |  |  |  |
| O=c1[nH]cnc2[nH]c(-c3cccc4ccc(Nc5ccccc5)nc34)cc12 [Example 16, 6-(2-(phenylamino)quinolin-8-yl)-3H-pyrrolo[2,3-d]pyrimidin-4(7H)-one] |  |  | 2.7 |  | 13.5 |  | 3850 |  |  |
| CN(c1ccccc1)c1ccc2cccc(-c3cc4c([nH]3)CCNC4=O)c2n1 [Example 4, 2-(2-(methyl(phenyl)amino)quinolin-8-yl)-6,7-dihydro-1H-pyrrolo[3,2-c]pyridin-4(5H)-one] |  |  | 2.1 |  | 6.8 |  | 2340 |  |  |
| Cc1nc2cccc(-c3cc4c([nH]3)CCNC4=O)c2nc1NC1CCCCC1 [Example 132, 2-(3-(cyclohexylamino)-2-methylquinoxalin-5-yl)-6,7-dihydro-1H-pyrrolo[3,2-c]pyridin-4(5H)-one] |  |  | 5.3 |  | 4.9 |  | 143 |  |  |
| O=C1NCCc2[nH]c(-c3cccc4ccc(Cc5ccccc5)nc34)cc21 [Example 3, 2-(2-benzylquinolin-8-yl)-6,7-dihydro-1H-pyrrolo[3,2-c]pyridin-4(5H)-one] |  |  | 12.8 |  | 37 |  | 6100 |  |  |
| Cc1nc2cccc(-c3cc4c([nH]3)CCNC4=O)c2nc1NC1CC(F)(F)C1 [Example 145, 2-(3-((3,3-difluorocyclobutyl)amino)-2-methylquinoxalin-5-yl)-6,7-dihydro-1H-pyrrolo[3,2-c]pyridin-4(5H)-one] |  | 971 | 14.2 |  | 8.9 |  |  | 4.6 | 8.7 |
| O=C1NCCc2[nH]c(-c3c(F)ccc4ccc(Nc5cccnc5)nc34)cc21 [Example 228, 2-(7-fluoro-2-(pyridin-3-ylamino)quinolin-8-yl)-6,7-dihydro-1H-pyrrolo[3,2-c]pyridin-4(5H)-one] |  | 1610 | 3 |  | 0.9 |  |  |  |  |

More lines, in order of falling IC50 (Pim-1 [3]), values ahead:

| IC50 (Pim-2 [1]; [6]) [nM] | IC50 [2, 7] [nM] | IC50 (Pim-1 [3]) [nM] | IC50 (Pim-1 [4]; [8]) [nM] | IC50 (Pim-2 [5]) [nM] | IC50 [2, 9] [nM] | Structure (SMILES) | IC50 [2, 10] [nM] | IC50 (Pim-2 [1]) [nM] | IC50 (Pim-1 [4]) [nM] |
| --- | --- | --- | --- | --- | --- | --- | --- | --- | --- |
|  | 966 | 36.2 |  | 17.6 |  | Cc1nc2cccc(-c3cc4c([nH]3)CCNC4=O)c2nc1Nc1ccccn1 [Example 190, 2-(2-methyl-3-(pyridin-2-ylamino)quinoxalin-5-yl)-6,7-dihydro-1H-pyrrolo[3,2-c]pyridin-4(5H)-one] |  |  |  |
| 3 | 481 | 8.9 | 6.5 | 7.9 |  | Cc1nc2cccc(-c3cc4c([nH]3)CCNC4=O)c2nc1NC1(CO)CCC1 [Example 146, 2-(3-((1-(hydroxymethyl)cyclobutyl)amino)-2-methylquinoxalin-5-yl)-6,7-dihydro-1H-pyrrolo[3,2-c]pyridin-4(5H)-one] |  |  |  |
|  | 217 | 7.6 |  | 4.7 |  | C=C(C)CNc1nc2c(-c3cc4c([nH]3)CCNC4=O)cccc2nc1C [Example 135, 2-(2-methyl-3-((2-methylallyl)amino)quinoxalin-5-yl)-6,7-dihydro-1H-pyrrolo[3,2-c]pyridin-4(5H)-one] |  |  |  |
|  | 8440 | 4.5 |  | 10.5 |  | Cc1cc2cccc(-c3cc4c([nH]3)CCNC4=O)c2nc1Nc1ccc(Br)cc1 [Example 106, 2-(2-((4-bromophenyl)amino)-3-methylquinolin-8-yl)-6,7-dihydro-1H-pyrrolo[3,2-c]pyridin-4(5H)-one] |  |  |  |
|  | 4920 | 2.8 |  | 21.6 |  | O=C1NCCc2[nH]c(-c3cccc4ccc(NCc5ccccc5)nc34)cc21 [Example 21, 2-(2-(benzylamino)quinolin-8-yl)-6,7-dihydro-1H-pyrrolo[3,2-c]pyridin-4(5H)-one] |  |  |  |
|  | 3580 | 2.6 |  | 4.7 |  | O=C1NCCc2[nH]c(-c3cccc4ccc(Oc5c(F)cccc5F)nc34)cc21 [Example 176, 2-(2-(2,6-difluorophenoxy)quinolin-8-yl)-6,7-dihydro-1H-pyrrolo[3,2-c]pyridin-4(5H)-one] |  |  |  |
| 1.4 |  | 1.9 | 0.7 | 5.3 | 2260 | Cc1nc2cccc(-c3cc4c([nH]3)CCNC4=O)c2nc1N[C@H]1CC[C@@H](N)C1 (single isomer, unassigned) [Example 142, 2-(3-((cis-3-aminocyclopentyl)amino)-2-methylquinoxalin-5-yl)-6,7-dihydro-1H-pyrrolo[3,2-c]pyridin-4(5H)-one] |  |  |  |
| 0.4 |  | 0.7 | 0.3 | 0.8 | 440 | Cc1nc2cccc(-c3cc4c([nH]3)CCNC4=O)c2nc1N[C@H]1CC[C@@H](N)C1 (single isomer, unassigned) [Example 143, 2-(3-((cis-3-aminocyclopentyl)amino)-2-methylquinoxalin-5-yl)-6,7-dihydro-1H-pyrrolo[3,2-c]pyridin-4(5H)-one] |  |  |  |
